Results on two compounds are retold here after patent publication EP0446124A2, “Use of antiprogestomimetics to synchronise parturition in livestock” (ROUSSEL UCLAF, priority 1990, dated 1991).

For this assay, the system named is truies. The assay can be described thus: Synchronisation of parturition in sows: interval between injection of the active principle and farrowing. In kind it is in vivo. The settings on record: single i.m. injection on day 113 of gestation (Ho = 9 h); for intervalle de temps entre l'injection du principe actif et la mise bas: 20 à 30 H (number of animals) / intervalle de temps entre l'injection du principe actif et la mise bas: 30 à 36 H (number of animals) / intervalle de temps entre l'injection du principe actif et la mise bas: - 20 H (number of animals): produit A 2 mg/kg (n = 24); for intervalle de temps entre l'injection du principe actif et la mise bas: 20 à 30 H (number of animals) / intervalle de temps entre l'injection du principe actif et la mise bas: 20 à 30 H (% des animaux): farrowing 20 to 30 h after injection; for intervalle de temps entre l'injection du principe actif et la mise bas: 30 à 36 H (number of animals) / intervalle de temps entre l'injection du principe actif et la mise bas: 30 à 36 H (% des animaux): farrowing 30 to 36 h after injection; for intervalle de temps entre l'injection du principe actif et la mise bas: - 20 H (number of animals) / intervalle de temps entre l'injection du principe actif et la mise bas: - 20 H (% des animaux): farrowing less than 20 h after injection; for intervalle de temps entre l'injection du principe actif et la mise bas: 20 à 30 H (% des animaux) / intervalle de temps entre l'injection du principe actif et la mise bas: 30 à 36 H (% des animaux) / intervalle de temps entre l'injection du principe actif et la mise bas: - 20 H (% des animaux): produit A 2 mg/kg. The text has this:
L'essai a été réalisé chez des truies. Les truies ont été sélectionnées en fonction des critères suivants : • truies de même origine (même schéma de sélection), • truies de même rang de parturition (3ème), • saillie par le même verrat ou insémination artificielle avec semence de même origine, • nombre de saillies ou d'inséminations identiques, • saillie ou insémination sur première chaleur post-sevrage (intervalle sevrage saillie identique ou très proche), • durée d'allaitement identique.
Les truies sont divisées en 3 lots de n animaux : • un lot témoin ne reçoit aucun produit, • un lot reçoit une injection intra-musculaire de 2 mg/kg de produit A ou 17béta-hydroxy 11béta-(4-diméthylaminophényl) 17alpha-(prop-1-ynyl) estra-4,9-dièn-3-one, le 113ème jour de la gestation, • un lot reçoit une injection intra-musculaire de 175 mcg de cloprosténol sous forme de PLANATE^ R par truie, le 113 ème jour de la gestation.
On a mesuré l'intervalle de temps entre l'injection du principe actif et la mise bas : le tableau suivant résume les résultats obtenus.
1.- Animaux traités (Ho = 9 heures le 113ème jour de gestation.

Where [1] appears, read: cloprosténol 175 mcg per sow (n = 23).

Structures are written as SMILES.

With `O=C(O)CCC/C=C\CC1C(O)CC(O)C1/C=C/C(O)COc1cccc(Cl)c1` (centres unmarked) [Cloprosténol, cloprosténol], the “intervalle de temps entre l'injection du principe actif et la mise bas: + 36 H (number of animals)” value (cloprosténol 175 mcg per sow (n = 23), farrowing more than 36 h after injection) amounted to 3. Also, the “intervalle de temps entre l'injection du principe actif et la mise bas: + 36 H (% des animaux)” value (cloprosténol 175 mcg per sow, farrowing more than 36 h after injection) came to 13%. Further, under setting [1], the “intervalle de temps entre l'injection du principe actif et la mise bas: 20 à 30 H (number of animals)” value was found to be 18, the “intervalle de temps entre l'injection du principe actif et la mise bas: 30 à 36 H (number of animals)” value is reported as 1 and the “intervalle de temps entre l'injection du principe actif et la mise bas: - 20 H (number of animals)” value was 1. Moreover, where the note is “cloprosténol 175 mcg per sow”, the “intervalle de temps entre l'injection du principe actif et la mise bas: 20 à 30 H (% des animaux)” value worked out at 78%, the “intervalle de temps entre l'injection du principe actif et la mise bas: 30 à 36 H (% des animaux)” value is recorded as 4,5% and the “intervalle de temps entre l'injection du principe actif et la mise bas: - 20 H (% des animaux)” value was 4,5%.

Take `CC#C[C@]1(O)CC[C@H]2[C@@H]3CCC4=CC(=O)CCC4=C3[C@@H](c3ccc(N(C)C)cc3)C[C@@]21C` [Produit A, 17béta-hydroxy 11béta-(4-diméthylaminophényl) 17alpha-(prop-1-ynyl) estra-4,9-dièn-3-one]: under setting [1], the “intervalle de temps entre l'injection du principe actif et la mise bas: 20 à 30 H (number of animals)” value is reported as 22, the “intervalle de temps entre l'injection du principe actif et la mise bas: 30 à 36 H (number of animals)” value is reported as 1 and the “intervalle de temps entre l'injection du principe actif et la mise bas: - 20 H (number of animals)” value amounted to 1. In addition, for the setting “cloprosténol 175 mcg per sow”, the “intervalle de temps entre l'injection du principe actif et la mise bas: 20 à 30 H (% des animaux)” value is listed as 92%, the “intervalle de temps entre l'injection du principe actif et la mise bas: 30 à 36 H (% des animaux)” value is 4% and the “intervalle de temps entre l'injection du principe actif et la mise bas: - 20 H (% des animaux)” value was 4%.
